Data published in ChEMBL document CHEMBL5096235, “In Silico Exploration and Biological Evaluation of Bispecific Peptides Derived from Anti-HER2 Antibodies and Peptide-Camptothecin Conjugates for HER2-Positive Breast Cancer” (J Med Chem, 2022).
The source made the active and inactive calls. The rule behind the calls is not given here. Residues, ends and D or L forms follow the SMILES beside them. *: point of attachment. S(CH2)2OCO2(CPT-20-yl) = CC[C@@]1(OC(=O)OCCS*)C(=O)OCc2c1cc1n(c2=O)Cc2cc3ccccc3nc2-1

Key:
[1] = molecular target: Receptor tyrosine-protein kinase erbB-2 (Homo sapiens, UniProt P04626); test: Binding affinity to HER2 in HER-positive human SK-BR-3 cells assessed as increase in fluorescence intensity at 25 uM by Hoechst 33342 staining based confocal microscopic analysis; assay type: cell-based
Sequence of Receptor tyrosine-protein kinase erbB-2 (P04626 whole entry): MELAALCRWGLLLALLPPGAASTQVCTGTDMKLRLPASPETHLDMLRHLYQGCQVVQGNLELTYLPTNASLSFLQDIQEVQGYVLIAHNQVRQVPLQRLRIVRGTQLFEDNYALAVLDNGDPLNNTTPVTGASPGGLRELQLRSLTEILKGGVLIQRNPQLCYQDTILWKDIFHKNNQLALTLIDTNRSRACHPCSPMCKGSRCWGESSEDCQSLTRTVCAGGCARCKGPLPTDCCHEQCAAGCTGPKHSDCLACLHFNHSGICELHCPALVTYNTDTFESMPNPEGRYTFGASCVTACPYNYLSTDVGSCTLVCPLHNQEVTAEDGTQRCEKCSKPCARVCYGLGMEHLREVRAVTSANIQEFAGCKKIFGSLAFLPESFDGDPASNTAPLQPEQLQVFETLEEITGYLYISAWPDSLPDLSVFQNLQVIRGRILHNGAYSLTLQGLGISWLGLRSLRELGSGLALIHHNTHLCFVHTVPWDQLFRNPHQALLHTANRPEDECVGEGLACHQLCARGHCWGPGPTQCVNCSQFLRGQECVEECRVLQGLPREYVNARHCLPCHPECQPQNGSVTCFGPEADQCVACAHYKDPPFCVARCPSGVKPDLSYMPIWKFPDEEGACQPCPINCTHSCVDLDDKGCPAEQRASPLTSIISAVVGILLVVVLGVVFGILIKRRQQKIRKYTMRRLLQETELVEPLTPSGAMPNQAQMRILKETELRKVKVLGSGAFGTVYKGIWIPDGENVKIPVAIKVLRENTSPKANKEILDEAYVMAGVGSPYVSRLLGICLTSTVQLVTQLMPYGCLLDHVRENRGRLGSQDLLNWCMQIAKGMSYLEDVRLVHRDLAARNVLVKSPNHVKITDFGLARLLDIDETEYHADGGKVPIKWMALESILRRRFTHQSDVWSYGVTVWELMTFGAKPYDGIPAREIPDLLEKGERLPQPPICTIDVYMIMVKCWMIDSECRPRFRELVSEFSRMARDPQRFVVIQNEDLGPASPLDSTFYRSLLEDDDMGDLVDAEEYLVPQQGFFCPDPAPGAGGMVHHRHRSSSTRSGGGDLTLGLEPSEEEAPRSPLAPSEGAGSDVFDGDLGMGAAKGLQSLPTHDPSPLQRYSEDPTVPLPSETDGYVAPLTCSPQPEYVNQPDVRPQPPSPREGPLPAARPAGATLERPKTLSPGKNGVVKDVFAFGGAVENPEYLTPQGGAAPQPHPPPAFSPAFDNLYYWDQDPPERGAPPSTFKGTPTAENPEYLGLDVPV

SK-BR-3 [2] = test: Cytotoxicity against HER-positive human SK-BR-3 cells assessed as inhibition of cell growth incubated for 48 hrs by MTT assay; assay type: functional, cell-based; conditions: SK-BR-3, 48 h
SK-OV-3 = test: Cytotoxicity against HER-positive human SK-OV-3 cells assessed as inhibition of cell growth incubated for 48 hrs by MTT assay; assay type: functional, cell-based; conditions: SK-OV-3, 48 h
MDA-MB-231 = test: Cytotoxicity against HER-negative human MDA-MB-231 cells assessed as inhibition of cell growth incubated for 48 hrs by MTT assay; assay type: functional, cell-based; conditions: MDA-MB-231, 48 h
[3] = Cytotoxicity against human MCF-10A cells assessed as inhibition of cell growth incubated for 48 hrs by MTT assay; assay type: toxicity, cell-based
SK-BR-3 [4] = test: Induction of apoptosis in human SK-BR-3 cells assessed as early apoptotic cells at 1 uM incubated for 24 hrs by Annexin V-FITC/PI staining based flow cytometry analysis (Rvb= 4.37%); assay type: functional
SK-BR-3 [5] = test: Induction of apoptosis in human SK-BR-3 cells assessed as late apoptotic cells at 1 uM incubated for 24 hrs by Annexin V-FITC/PI staining based flow cytometry analysis (Rvb= 5.02%); assay type: functional
SK-BR-3 [6] = test: Induction of apoptosis in human SK-BR-3 cells assessed as dead cells at 1 uM incubated for 24 hrs by Annexin V-FITC/PI staining based flow cytometry analysis (Rvb= 1.21%); assay type: functional
SK-BR-3 [7] = test: Induction of apoptosis in human SK-BR-3 cells assessed as live cells at 2 uM incubated for 24 hrs by Annexin V-FITC/PI staining based flow cytometry analysis (Rvb= 89.4%); assay type: functional
SK-BR-3 [8] = test: Induction of apoptosis in human SK-BR-3 cells assessed as early apoptotic cells at 2 uM incubated for 24 hrs by Annexin V-FITC/PI staining based flow cytometry analysis (Rvb= 4.37%); assay type: functional
SK-BR-3 [9] = test: Induction of apoptosis in human SK-BR-3 cells assessed as late apoptotic cells at 2 uM incubated for 24 hrs by Annexin V-FITC/PI staining based flow cytometry analysis (Rvb= 5.02%); assay type: functional
SK-BR-3 [10] = test: Induction of apoptosis in human SK-BR-3 cells assessed as dead cells at 2 uM incubated for 24 hrs by Annexin V-FITC/PI staining based flow cytometry analysis (Rvb= 1.21%); assay type: functional
[11] = molecular target: T1, DNA topoisomerase 1 (Homo sapiens) (UniProt P11387); test: Inhibition of topoisomerase 1 (unknown origin) assessed as relaxation of supercoiled plasmid pBR322 DNA at 100 uM preincubated for 20 mins followed by pBR322 DNA addition and measured after 30 mins by agarose gel electrophoresis analysis; conditions: time 50.0 min
T1 sequence (whole entry): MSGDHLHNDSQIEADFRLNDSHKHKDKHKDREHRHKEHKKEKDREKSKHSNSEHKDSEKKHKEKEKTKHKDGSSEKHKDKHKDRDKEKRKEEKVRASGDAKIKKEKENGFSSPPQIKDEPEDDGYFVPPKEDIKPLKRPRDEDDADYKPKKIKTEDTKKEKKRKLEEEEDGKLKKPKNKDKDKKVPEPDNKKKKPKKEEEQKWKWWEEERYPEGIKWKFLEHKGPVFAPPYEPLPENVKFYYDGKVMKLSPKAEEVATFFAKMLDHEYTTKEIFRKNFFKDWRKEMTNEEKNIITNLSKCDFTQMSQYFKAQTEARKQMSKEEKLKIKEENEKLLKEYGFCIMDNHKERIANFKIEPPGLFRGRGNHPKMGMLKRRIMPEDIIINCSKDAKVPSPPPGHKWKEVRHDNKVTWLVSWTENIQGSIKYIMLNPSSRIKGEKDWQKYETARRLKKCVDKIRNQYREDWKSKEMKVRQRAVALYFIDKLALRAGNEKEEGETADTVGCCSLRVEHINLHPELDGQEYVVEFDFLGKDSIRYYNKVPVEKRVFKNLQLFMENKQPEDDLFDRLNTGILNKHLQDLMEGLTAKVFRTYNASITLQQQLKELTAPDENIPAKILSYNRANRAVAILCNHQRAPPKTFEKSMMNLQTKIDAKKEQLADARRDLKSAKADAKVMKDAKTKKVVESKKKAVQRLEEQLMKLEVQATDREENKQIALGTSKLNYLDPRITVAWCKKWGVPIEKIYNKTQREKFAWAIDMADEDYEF

[12] = molecular target: Epidermal growth factor receptor and ErbB2 (HER1 and HER2) (Homo sapiens) (UniProt P04626+P00533); test: Inhibition of EGFR/HER2 heterodimerization in human SK-BR-3 cells at 10 uM preincubated for 4 hrs followed by EGF addition for 20 mins by immunoprecipitation analysis; assay type: cell-based; conditions: time 260.0 min
[13] = Drug metabolism in human SK-BR-3 cells assessed as camptothecin release at 50 uM measured after 4 hrs by LC-MS/MS analysis; assay type: ADME, cell-based; conditions: sk-br-3, 4 h
SK-BR-3 [14] = test: Antitumor activity against human SK-BR-3 cells xenografted in nude mouse assessed as reduction in tumor growth at 8 umol/kg, iv administered every 3 days for 14 days and measured every 2 days; assay type: functional, organism-based; conditions: dose 8.0 µmol/kg, time 14.0 day
[15] = Toxicity in nude mouse xenografted with human SK-BR-3 cells assessed as reduction in body weight at 8 umol/kg, iv administered every 3 days for 14 days; assay type: organism-based; conditions: in vivo, 336 h, dose 8 µmol/kg, time 14 day
[16] = […] in nude mouse xenografted with human SK-BR-3 cells assessed as effect on alanine aminotransferase level at 8 micromol/kg, iv administered every 3 days for 14 days; assay type: organism-based; conditions: in vivo, 336 h, dose 8 µmol/kg, time 14 day
[17] = Toxicity in nude mouse xenografted with human SK-BR-3 cells assessed as effect on alkaline phosphatase level at 8 micromol/kg, iv administered every 3 days for 14 days; assay type: organism-based; conditions: in vivo, 336 h, dose 8 µmol/kg, time 14 day
[18] = Toxicity in nude mouse xenografted with human SK-BR-3 cells assessed as effect on albumin level at 8 micromol/kg, iv administered every 3 days for 14 days; assay type: organism-based; conditions: in vivo, 336 h, dose 8 µmol/kg, time 14 day
[19] = Toxicity in nude mouse xenografted with human SK-BR-3 cells assessed as effect on globulin level at 8 micromol/kg, iv administered every 3 days for 14 days; assay type: organism-based; conditions: in vivo, 336 h, dose 8 µmol/kg, time 14 day
[20] = Toxicity in nude mouse xenografted with human SK-BR-3 cells assessed as effect on creatinine level at 8 micromol/kg, iv administered every 3 days for 14 days; assay type: organism-based; conditions: in vivo, 336 h, dose 8 µmol/kg, time 14 day
[21] = Toxicity in nude mouse xenografted with human SK-BR-3 cells assessed as liver damage at 8 micromol/kg, iv administered every 3 days for 14 days by H and E staining based analysis; assay type: organism-based; conditions: in vivo, 336 h, dose 8 µmol/kg, time 14 day
[22] = Toxicity in nude mouse xenografted with human SK-BR-3 cells assessed as spleen damage at 8 micromol/kg, iv administered every 3 days for 14 days by H and E staining based analysis; assay type: organism-based; conditions: in vivo, 336 h, dose 8 µmol/kg, time 14 day
[23] = Toxicity in nude mouse xenografted with human SK-BR-3 cells assessed as kidney damage at 8 micromol/kg, iv administered every 3 days for 14 days by H and E staining based analysis; assay type: organism-based; conditions: in vivo, 336 h, dose 8 µmol/kg, time 14 day
[24] = Toxicity in nude mouse xenografted with human SK-BR-3 cells assessed as inflammatory cell infiltration at 8 micromol/kg, iv administered every 3 days for 14 days by H and E staining based analysis; assay type: organism-based; conditions: in vivo, 336 h, dose 8 µmol/kg, time 14 day

Row | SMILES | Activity [1] | IC50 (SK-BR-3 [2]) [µM] | IC50 (SK-OV-3) [µM] | IC50 (MDA-MB-231) [µM] | IC50 at 48 h [3] [µM] | Activity (SK-BR-3 [4]) [%] | Activity (SK-BR-3 [5]) [%] | Activity (SK-BR-3 [6]) [%] | Activity (SK-BR-3 [7]) [%] | Activity (SK-BR-3 [8]) [%] | Activity (SK-BR-3 [9]) [%] | Activity (SK-BR-3 [10]) [%] | inhibition [11] | inhibition [12] | Drug metabolism [13] | Activity (SK-BR-3 [14]) | Activity [15] | Activity [16] | Activity [17] | Activity [18] | further results
1 | CC[C@H](C)[C@H](NC(=O)[C@@H](N)CCCNC(=N)N)C(=O)N[C@@H](CCCCN)C(=O)N1CCC[C@H]1C(=O)N[C@@H](CCCNC(=N)N)C(=O)N[C@@H](CCCCN)C(=O)NCC(=O)N[C@@H](Cc1ccc(O)cc1)C(=O)N[C@H](C(=O)N[C@@H](CCCNC(=N)N)C(=O)NCC(=O)N[C@@H](CSSCCOC(=O)O[C@]1(CC)C(=O)OCc2c1cc1n(c2=O)Cc2cc3ccccc3nc2-1)C(=O)NCC(=O)N[C@@H](CC(N)=O)C(=O)N1CCC[C@H]1C(=O)N[C@@H](CC(N)=O)C(=O)N[C@@H](Cc1c[nH]c2ccccc12)C(=O)NCC(=O)N[C@@H](CCCNC(=N)N)C(=O)N[C@@H](CO)C(=O)N[C@@H](Cc1c[nH]c2ccccc12)C(=O)N[C@@H](Cc1ccc(O)cc1)C(=O)N[C@@H](CC(N)=O)C(=O)N[C@@H](CCC(N)=O)C(=O)N[C@@H](CCCNC(=N)N)C(=O)N[C@@H](Cc1ccccc1)C(=O)N[C@@H](CCCCN)C(N)=O)[C@@H](C)O (H-RIKPRKGYTRGC(S(CH2)2OCO2(CPT-20-yl))GNPNWGRSWYNQRFK-NH2) | Active | 1.47 | 4.29 | 7.6 | 23.9 | 34.9 | 7.25 | 0.26 | 49.1 | 39.4 | 10.8 | 0.64 | Active | Active | Metabolite_Detected | Active | Non-Toxic | Non-Toxic | Non-Toxic | Non-Toxic | Activity [19]: Non-Toxic; Activity [20]: Non-Toxic; Activity [21]: Non-Toxic; Activity [22]: Non-Toxic; Activity [23]: Non-Toxic; Activity [24]: Non-Toxic
2 | CC[C@H](C)[C@H](NC(=O)[C@@H](N)CCCNC(=N)N)C(=O)N[C@@H](CCCCN)C(=O)N1CCC[C@H]1C(=O)N[C@@H](CCCNC(=N)N)C(=O)N[C@@H](CCCCN)C(=O)NCC(=O)N[C@@H](Cc1ccc(O)cc1)C(=O)N[C@H](C(=O)N[C@@H](CCCNC(=N)N)C(=O)NCC(=O)N[C@@H](CSSCCOC(=O)O[C@]1(CC)C(=O)OCc2c1cc1n(c2=O)Cc2cc3ccccc3nc2-1)C(=O)NCC(=O)N[C@@H](CSSCCOC(=O)O[C@]1(CC)C(=O)OCC2=C1C=C1c3nc4ccccc4cc3NC1C2=O)C(=O)NC(=O)C[C@H](NC(=O)CN)C(=O)N1CCC[C@H]1C(=O)N[C@@H](CC(N)=O)C(=O)N[C@@H](Cc1c[nH]c2ccccc12)C(=O)NCC(=O)N[C@@H](CCCNC(=N)N)C(=O)N[C@@H](CO)C(=O)N[C@@H](Cc1c[nH]c2ccccc12)C(=O)N[C@@H](Cc1ccc(O)cc1)C(=O)N[C@@H](CC(N)=O)C(=O)N[C@@H](CCC(N)=O)C(=O)N[C@@H](CCCNC(=N)N)C(=O)N[C@@H](Cc1ccccc1)C(=O)N[C@@H](CCCCN)C(N)=O)[C@@H](C)O (some centres not stated) | Active | 0.12 | 1.27 | 7.72 | 17.1 | 39.8 | 8.5 | 0.49 | 44.7 | 41 | 14 | 0.28 | Active | Active | Metabolite_Detected | Active | Non-Toxic | Non-Toxic | Non-Toxic | Non-Toxic | Activity [19]: Non-Toxic; Activity [20]: Non-Toxic; Activity [21]: Non-Toxic; Activity [22]: Non-Toxic; Activity [23]: Non-Toxic; Activity [24]: Non-Toxic
